Where two headings read alike, the source gives them in different places.
Columns and labels:
[1] = Table 3B; Hammett substitution constant based on the ionization of benzoic acids; cited from earlier work
[2] = test system: Aedes aegypti mosquitoes, insecticide-susceptible Orlando strain; type: in vivo; settings: for 1h % repellency: Table 3B, Screened at μg/cm^2
Procedure, shortened: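 Sixteen female mosquitoes per glass tube facing netting-shielded filter paper treated with acetone solutions (30-0.01 μg/ml; screen at 100 μg/cm^2), no contact. Proportion on treated side scored up to 60 min, then flight-out checked 30 min; mortality after 24 hr constant exposure.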

[3] = test system: Aedes aegypti mosquitoes, insecticide-susceptible Orlando strain; settings: for 24h % mortality: Screened at μg/cm^2
[4] = Mammalian toxicity, oral gavage; type: in vivo; settings: ICR, in vivo; Table 3A; oral gavage; preliminary mouse screening
Procedure: (§1) Mice ([…] strain ICR, body weight between 20 and 26 g, 35 days old+/−4 days), were force fed with compounds solubilized in olive oil to a volume of 10 μL per gram of mouse via 1 mL disposable syringes attached to 22 gauge metal canulas directly in the stomach following the Institutional Animal Care and Use Committee (IACUC) standard procedure. One hour after gavage, mice were returned to food and water access ad libitum. Dose tested ranged from 60 up to 600 mg/kg of mice, following the method recommended by the US EPA to reduce the number of mice used to determine the LD50 doses. Mice were monitored after drug administration during the first hour, and then every 4 hours up to 24 hours. The surviving mice were humanely sacrificed. Any mice displaying a high state of pain/distress would also be considered as not surviving the treatment and were sacrificed before the end of the investigation. The […] was determined using the AOT425StatPgm software; the study was registered and approved by IACUC under number 201810416.

[5] = test system: Anopheles gambiae Akron kdr (Akdr) strain, resistant to pyrethroids; assay: Topical toxicity (24 hour mortality), An. gambiae Akdr; type: in vivo; settings: Table 5; topical, 24 h
Procedure, shortened: (§2)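 Females aged 3–6 days received 200 nL of compound in ethanol topically on the thorax, 10 per concentration per replicate, and were kept at 28° C with sugar water.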

[6] = test system: Aedes aegypti strain Orlando (sensitive); assay: Topical toxicity (24 hour mortality), Ae. aegypti Orlando; type: in vivo; settings: Table 5; topical, 24 h
Procedure, shortened: as §2

Mice (inbred strain ICR) = assay: Mammalian toxicity, oral gavage; type: in vivo; settings: Table 5; preliminary mouse screening
Procedure: as §1

[7] = test system: Anopheles gambiae G3 sensitive strain; assay: Topical toxicity (24 hour mortality), An. gambiae G3; type: in vivo; settings: Table 5; topical, 24 h
Procedure, shortened: as §2

[8] = test system: Aedes aegypti strain Puerto Rico (PR, resistant to permethrin); assay: Topical toxicity (24 hour mortality), Ae. aegypti Puerto Rico; type: in vivo; settings: Table 5; topical, 24 h; strain not given, line below OR
Procedure: The Aedes aegypti strains Orlando (sensitive) as well as the Puerto Rico (PR, resistant to permethrin) were used. The Anopheles gambiae (G3 sensitive strain, as well as Akron kdr (Akdr) strain, resistant to pyrethroids were also assessed. The larvae were provided by the USDA, Gainesville Fl, and raised in a pan with tap water maintained at 28° C. Larvae were fed a ground liver and yeast mixture, and pupae were placed in emergence cages. Adults were held at 28° C. and provided with cotton balls soaked in 10% sugar water for rearing and for all bioassays.
Female adults from 3 to 6 days were used for the experiments. The drug was dissolved in ethanol and then applied with a micro-applicator on the thorax, between the legs: 200 nL of drug per female mosquito, with different concentrations of the drug; 10 mosquitos were treated together per concentration per replicate, and put together in a small container with free access to sweet water. Mortality, i.e. no visible movement, was assessed 24 hours after treatment. Every compound was assessed on at least 3 different cohorts of mosquitoes, and the LD50 values and slopes were determined with Probit analysis, corrected with Abbott's formula.

| Structure (SMILES) | σmeta [1] | 1h % repellency [2] | An. gambiae AKDR LD50 [5] | Ae. aegypti OR LD50 [6] | Mouse LD50 (Mice (inbred strain ICR)) | An. gambiae G3 LD50 [7] | further results |
| --- | --- | --- | --- | --- | --- | --- | --- |
| O=C(CCl)Nc1cccc(O)c1 [compound 2] | 0.12 | 36% |  |  |  |  |  |
| O=C(CCl)Nc1cccc(F)c1 [compound 3] | 0.337 | 6% |  |  |  |  |  |
| O=C(CCl)Nc1cccc(C(F)(F)F)c1 [compound 4] | 0.52 | 50% |  |  |  |  | 24h % mortality ([3]; Table 3B): 3.13% |
| O=C(Nc1c(Cl)cccc1Cl)C(F)(F)C(F)(F)F [compound 53] |  |  |  |  |  |  | LD50 at 24 h [4]: > 2000 mg/kg; 1h EC50 (μg/cm^2) ([2]; Table 3A): 8.90 μg/cm^2; 24 h LC50, μg/cm^2 ([3]; Table 3A): 7.60 μg/cm^2; 24h % mortality ([3]; Table 3A): 100% |
| O=C(Nc1cc(Cl)nc(Cl)c1)C(F)(F)C(F)(F)OC(F)(F)F [compound 54] |  |  | 11.00 ng/mg | 17.80 ng/mg | >2000 ng/mg | 6.04 ng/mg |  |
| O=C(Nc1cc(Cl)nc(Cl)c1)C(F)(C(F)(F)F)C(F)(F)F [compound 55] |  |  | 2.70 ng/mg | 17.20 ng/mg | ~50 ng/mg | 5.80 ng/mg | Ae. aegypti LD50 [8]: 7.10 ng/mg |
| O=C(Nc1cc(Cl)nc(C(F)(F)F)c1)C(F)(F)C(F)(F)OC(F)(F)F [compound 57] |  |  | 3.60 ng/mg | 14.90 ng/mg | >200 ng/mg | 13.70 ng/mg |  |

Reference: patent US20230337677A1, “ARYL AND PYRIDYL AMIDE PESTICIDES AND COMPOSITIONS THEREOF” (University of Florida Research Foundation, Incorporated, priority 2019, published 2023)
